Data reported in a melting point compilation (Tetko et al.).

OCC1CCN(c2ncccn2)CC1
melting point: 52 to 54 °C

COc1cc(C(=O)O)cc(Cl)n1
melting point: 214 to 216 °C

O=C(C=Cc1ccco1)C=Cc1ccco1
melting point: 60.5 °C

COc1ccc2[nH]cc(CCN(C)C)c2c1
melting point: 69.5 °C

c1cc2c(nn1)CCc1nonc1-2
melting point: 108 to 110 °C

N#Cc1ccc(C=Cc2cccc(C=Cc3ccc(C#N)cc3[N+](=O)[O-])c2)c([N+](=O)[O-])c1
melting point: 298 °C

CC(C)(C)OC(=O)N[C@H](COCc1ccccc1)C(=O)O
melting point: 61.5 °C

CCOC(=O)C(C)=P(c1ccccc1)(c1ccccc1)c1ccccc1
melting point: 157 to 159 °C

O=C(C1CCNCC1)N1CCCCC1
melting point: 107 to 109 °C

CC(C)c1cccc(C(C)C)c1O
melting point: 18 °C

O=C(Cl)c1cc(Cl)cc(Cl)c1
melting point: 40 °C

CC12CCC3C(CCC4CC5(CCC43C)OCCO5)C1CCC2O (stereo unspecified)
melting point: 212 °C

CCC(C)(Br)CBr (stereo unspecified)
melting point: -70 °C

NC(=O)C(F)(F)C(F)(F)C(F)(F)F
melting point: 103 to 105 °C

N#C/C(=C/c1ccccc1)c1ccc(Cl)cc1
melting point: 116 °C

COc1c(C)c(C)c(OC)c(Br)c1C
melting point: 72 °C

CN(N=O)c1ccccc1
melting point: 14.7 °C

O=Cc1cc([N+](=O)[O-])cc(Br)c1O
melting point: 149 °C

N=C(N)N(c1ccccc1)c1ccccc1
melting point: 150 °C

C=C(C)CCCCCCCCC
melting point: -40 °C

Cc1ccc(S(=O)(=O)OCCCOS(=O)(=O)c2ccc(C)cc2)cc1
melting point: 90 to 93 °C

FC(F)(Cl)CBr
melting point: -76 °C

Cc1cc(Br)c(O)c(Br)c1
melting point: 50 °C

NNc1cc(Cl)c(C(F)(F)F)cc1[N+](=O)[O-]
melting point: 140 to 145 °C

O=C(O)c1cnccc1C(F)(F)F
melting point: 150 °C

CC1(C)CCC2(C(=O)O)C(O)CC3(C)C(=CCC4C5(C)CCC(O)C(C)(C=O)C5CCC43C)C2C1 (stereo unspecified)
melting point: 294 °C

CC(C)Nc1ccccc1
melting point: -10 °C

NS(=O)(=O)c1cc2c(cc1C(F)(F)F)NCNS2(=O)=O
melting point: 272 °C

CN(C)C(=S)Oc1ccc2ccccc2c1
melting point: 90 °C

COc1cc([N+](=O)[O-])ccc1S(=O)(=O)Cl
melting point: 97 °C

CC(=O)Nc1ccc(S(N)(=O)=O)cc1
melting point: 220 °C

Oc1ccc(C2(c3ccc(O)cc3)CC3CC2C2CCCC32)cc1 (stereo unspecified)
melting point: 219 to 221 °C

Cc1cccc(/N=N/c2c(N)nn3c(C(F)(F)F)cc(C)nc23)c1
melting point: 209 °C

S=c1[nH]ccn1-c1ccc(Cl)cc1
melting point: 223 to 226 °C

c1cc2ccc1CCc1ccc(cc1)CC2
melting point: 285 to 288 °C

CN(C)c1ccc(N=O)cc1
melting point: 92.5 °C

CC(C)(Oc1ccc(C#N)cc1)C(=O)O
melting point: 117 to 120 °C

ClCc1ccc2c(c1)OCO2
melting point: 20.5 °C

CCCCCCCCCCCCCCCCCCCCCCCCCCO
melting point: 80 °C

O=C1C(=Cc2ccccc2)Cc2ccccc21
melting point: 110 °C

O=C(O)c1ccc(-c2ccsc2)cc1
melting point: 282 to 283 °C

CCc1cccc(Cc2ccccc2)c1
melting point: -9 °C

O=C(CCCCl)c1ccc(Cl)cc1
melting point: 30 °C

O=C1C(c2ccccc2)=[N+]([O-])c2cc([N+](=O)[O-])c(/C=C/c3ccccc3)cc21
melting point: 233 °C

BrCC(Br)C1CCC(Br)C(Br)C1 (stereo unspecified)
melting point: 70 °C

CC(N)C(C)(C)C (stereo unspecified)
melting point: -20 °C

CCOC(=O)c1cc(C)on1
melting point: 29 °C

Fc1cccc(F)c1CBr
melting point: 51 to 55 °C

CCOC(=O)CC=C(c1ccc(OC)cc1)C(C)(C)C(=O)OCC
melting point: 146 °C

COc1ccc(NC=C2C(=O)NN=C2c2c(O)c3ccccc3n(C)c2=O)cc1
melting point: 281 °C

CN(C)c1ccc(C2C3=C(CC(C)(C)CC3=O)Nc3ccc4ccccc4c32)cc1 (stereo unspecified)
melting point: 327 °C

CC(C)C1CC(=O)CC(=O)C1
melting point: 80 °C

C#CC1(OC(N)=O)CCCCC1
melting point: 96 °C

Cc1cc2oc(-c3ccccc3)cc(=O)c2cc1Cl
melting point: 174 to 178 °C

N#CCCn1cc(C(F)(F)F)ccc1=O
melting point: 89 to 90 °C

CC(=O)OC1C(=O)C2=C(C(=O)C13CC3C)C(O)C(O)C1C(C)(C)CCCC21C (stereo unspecified)
melting point: 180 to 182 °C

CC(CCC(=O)NCC(=O)O)C1CCC2C3C(O)CC4CC(O)CCC4(C)C3CC(O)C12C (stereo unspecified)
melting point: 166 °C

CCCCCCCCCCCC(=O)OCC
melting point: -2 °C

O=c1[nH]c2ccccc2c(-c2ccccc2)c1O
melting point: 268 °C

Cc1cc(Cl)cc(C)c1N
melting point: 48 °C

O=S(=O)(Cl)c1sccc1Br
melting point: 39 to 41.5 °C

NCc1ccc2sccc2c1
melting point: 41 to 43 °C

Cc1cc(C(=O)Cl)ccc1Br
melting point: 26 °C

CCC[C@H]1CCC[C@H]1C (relative stereo)
melting point: -104 °C

O=C1OC(c2ccccc2)=N/C1=C\c1cccc(/C=C2\N=C(c3ccccc3)OC2=O)c1
melting point: 247 °C

CCOC(=O)C1C(c2ccccc2)C(C(=O)OCC)C(O)(C(F)(F)F)NC1(O)C(F)(F)F (stereo unspecified)
melting point: 234 °C

O=Cc1ccccc1/C=C/c1ccc([N+](=O)[O-])cc1[N+](=O)[O-]
melting point: 186 °C

CCCCCCN(CCCCCC)C1=NC(=Cc2ccccc2)C(=O)N1c1ccccc1
melting point: 76 °C

CCOC(=O)c1c[nH]nc1C(F)(F)F
melting point: 145 to 148 °C

O=C(O)C=Cc1cc([N+](=O)[O-])ccc1Sc1ccc(Cl)cc1
melting point: 212 to 215 °C

Clc1cccc2c(C#Cc3ccccc3)c3ccccc3c(C#Cc3ccccc3)c12
melting point: 199 to 204 °C

OCc1ncoc1-c1ccccc1
melting point: 95 to 97 °C

CCc1cccc(Cl)c1
melting point: -55 °C

Nc1ccnc(N)n1
melting point: 143 to 148 °C

Cc1cccc2ncccc12
melting point: 19 °C

CC12CCCCC1CCC1C2CCC2(C)C1CCC21OCCO1 (stereo unspecified)
melting point: 143 °C

NC[C@H]1CC[C@H](C(=O)O)CC1
melting point: 300 °C

COc1ccc(C=CC(=O)c2ccc(F)cc2)c(OC)c1
melting point: 117 to 122 °C

Brc1cccc2cn[nH]c12
melting point: 128 °C

COc1ccc(O)c(C(=O)O)c1
melting point: 143 °C

O=C1NCCSC1c1ccccc1 (stereo unspecified)
melting point: 158 to 162 °C

O=C1C(=Cc2ccco2)SC(=S)N1CN1CCCCC1
melting point: 120 to 121 °C

CCN(CC)CCc1c[nH]c2ccccc12
melting point: 170 °C

O=[N+]([O-])c1cc(Cl)ccc1Br
melting point: 70 °C

O=C1C=C(NCCc2ccccc2)C(=O)c2ccccc21
melting point: 141 °C

NCCCO
melting point: 11 °C

Oc1cc(C(F)(F)F)nc2ccc(OC(F)(F)F)cc12
melting point: 229 to 232 °C

Cc1ccc([Si](C)(C)c2ccccc2CO)cc1
melting point: 56 °C

O=C(CCl)c1ccc(O)c(O)c1
melting point: 174 °C

Cc1cc(C(=O)NNCc2ccccc2)no1
melting point: 106 °C

O=C(O)C[C@H](NC(=O)OCC1c2ccccc2-c2ccccc21)c1cccc([N+](=O)[O-])c1
melting point: 140 °C

O=C(O)C1CNC1
melting point: 250 to 292 °C

OC1OC2COC(c3ccccc3)OC2C(O)C1O (stereo unspecified)
melting point: 173 to 174 °C

COC(=O)c1cc2oc(C=O)cc2n1C
melting point: 162 to 163 °C

O=C(Oc1c(F)c(F)c(F)c(F)c1F)c1ccc(OC2CCOCC2)nc1
melting point: 114 to 118 °C

Cc1ncsc1C(=O)O
melting point: 254 to 255 °C

CC12CCC3C(CCC4CC5(CCC43C)OCCO5)C1CCC2=O (stereo unspecified)
melting point: 153 °C

Nc1c(Cl)c(Cl)nc(C(=O)O)c1Cl
melting point: 218 °C

O=C(Nc1ccccc1[N+](=O)[O-])C(C(F)(F)F)C(F)(F)F
melting point: 156 °C

CCN(CC)c1ccc(N=O)cc1
melting point: 87.5 °C

CC(=O)c1cc2cc3c4c(c2oc1=O)CCCN4CCC3
melting point: 181 to 184 °C

C(=C(/c1ccccc1)c1nc2ccccc2s1)/c1ccccc1
melting point: 109 °C

CSCCC(NC(C)=O)C(=O)O (racemic)
melting point: 115 °C

C=CC1CO1 (stereo unspecified)
melting point: -135 °C

O=C1OC(=O)C2=C1Cc1cc3c(cc1C2)CC3
melting point: 254 °C

Cc1cccc(N2CC(CO)OC2=O)c1 (stereo unspecified)
melting point: 76 °C

Clc1ccc(Cl)c(Cl)c1
melting point: 17 °C

COc1ccc(Oc2ccc(C(F)(F)F)cc2N)cc1
melting point: 73 to 75 °C

O=C1CCc2cccc(O)c2C1
melting point: 156 to 157 °C

N#Cc1cc([N+](=O)[O-])cc([N+](=O)[O-])c1
melting point: 129 °C

CCCCCCCCC(N)=O
melting point: 99.5 °C

Nc1cc(Cl)cnc1Br
melting point: 141 to 143 °C

SC1CCCCC1
melting point: -30 °C

CC(=O)Oc1cccc([N+](=O)[O-])c1
melting point: 54 °C

CC1=CC=CC2Cc3ccccc3C(=O)N12 (stereo unspecified)
melting point: 98 °C

NC(=O)c1nccnc1C(N)=O
melting point: 268 °C

C=COCCCCCCCCCCCCCCCCCC
melting point: 30 °C

c1ccc(N2CSc3nnc(-c4cccnc4)n3C2)cc1
melting point: 214 °C

CCc1cccc(CC)c1N(COC)C(=O)CCl
melting point: 41 °C

COc1ccc(/C=N/c2nc(C(F)(F)F)n[nH]2)cc1
melting point: 171 °C

O=C1NC2CC=CCC12 (stereo unspecified)
melting point: 122 °C

CC1(C)OC2CC3C4CC(F)C5=CC(=O)C=CC5(C)C4C(O)CC3(C)C2(C(=O)CO)O1 (stereo unspecified)
melting point: 245 °C

Nc1ccc(O)c(C(=O)O)c1
melting point: 284 °C

NC(=O)C1CCN(CCCN2c3ccccc3Sc3ccc(Cl)cc32)CC1
melting point: 139 °C

O=C(NC(Cc1ccccc1)C(=O)O)OCc1ccccc1 (stereo unspecified)
melting point: 88.5 °C

COc1ccccc1-c1ccc(C=NO)o1
melting point: 128 °C

CC(C)(O)CC(C)(O)c1ccc(Cl)cc1 (stereo unspecified)
melting point: 76.5 °C

Cc1cc(Br)c(N)c([N+](=O)[O-])c1
melting point: 58 to 59 °C

Clc1c(Cl)c(Cl)c2ccccc2c1Cl
melting point: 198 °C

O=[N+]([O-])c1cc(C(F)(F)F)ccc1Oc1ccccc1Br
melting point: 58 to 62 °C

O=C1Cc2cccc3cccc1c23
melting point: 121 °C
